Like-named read-outs stand apart in the source and are kept apart here.
How the values were obtained:
Haemonchus contortus = test: Method A: Haemonchus contortus L1 larvae, microtitre plate screen; conditions: 96 h, read-out: motility inhibition
[1] = system: microfilaria of Dirofilaria immitis; test: Method F: microfilaria of Dirofilaria immitis, survival at 24 hours
[2] = survival of microfilaria at 24 hours

Compound: CC(O[C@H]1CC[C@H](Nc2ccc([N+](=O)[O-])c(C(F)(F)F)c2)CC1)C(=O)N1CCN(c2ccc3cc(C(F)(F)F)ccc3n2)CC1 (some centres unmarked) [Compound 249, 2-[[-4-[[4-nitro-3-(trifluoromethyl)phenyl]amino]cyclohexyl]oxy]-1-[4-[6-(trifluoromethyl)quinolin-2-yl]piperazin-1-yl]propan-1-one]
- inhibition at 5 µg/mL (Haemonchus contortus): ≥ 90%
- EC50 [1]: < 1 µg/mL

Compound: O=C(CO[C@H]1CC[C@H](Nc2ccc([N+](=O)[O-])c(C(F)(F)F)c2)CC1)N1CCN(c2ccc3ccccc3n2)CC1 [Compound 88, 2-((1R,4R)-4-(4-nitro-3-(trifluoromethyl)phenylamino)cyclohexyloxy)-1-(4-(quinolin-2-yl)piperazin-1-yl)ethanone]
- inhibition at 5 µg/mL (Haemonchus contortus): ≥ 90%
- EC50 [1, 2]: < 5 µg/mL

Compound: O=C(CO[C@H]1CC[C@H](Nc2ccc([N+](=O)[O-])c(C(F)(F)F)c2)CC1)N1CCN(c2ccc3cc(Cl)ccc3c2)CC1 [Compound 233, 1-[4-(6-chloro-2-naphthyl)piperazin-1-yl]-2-[4-[4-nitro-3-(trifluoromethyl)anilino]cyclohexoxy]ethanone]
- inhibition at 5 µg/mL (Haemonchus contortus): ≥ 90%
- EC50 [1, 2]: < 1 µg/mL

Compound: O=C(NCCO[C@H]1CC[C@H](Nc2ccc([N+](=O)[O-])c(C(F)(F)F)c2)CC1)C(=O)NCC1Cc2cc(Cl)ccc2O1 (some centres unmarked) [Compound 218, N^1-[(5-chloro-2,3-dihydro-1-benzofuran-2-yl)methyl]-N^2-[2-[(4-[[4-nitro-3-(trifluoromethyl)phenyl]amino]cyclohexyl)oxy]ethyl]ethanediamide]
- inhibition at 5 µg/mL (Haemonchus contortus): ≥ 90%
- EC50 [1, 2]: < 1 µg/mL

Compound: O=C(COc1ccc(Nc2ccc([N+](=O)[O-])c(C(F)(F)F)c2)cc1)N1CCN(Cc2cc3cc(F)ccc3o2)CC1 [Compound 186]
- inhibition at 5 µg/mL (Haemonchus contortus): ≥ 90%
- EC50 [1, 2]: < 1 µg/mL

Compound: CC(c1oc2ccc(C(F)(F)F)cc2c1Cl)N1CCN(C(=O)CO[C@H]2CC[C@H](Nc3ccc([N+](=O)[O-])c(C(F)(F)F)c3)CC2)CC1 (some centres unmarked) [Compound 255, 2-1-(4-[1-[3-chloro-5-(trifluoromethyl)-1-benzofuran-2-yl]ethyl]piperazin-1-yl)-2-[[4-[[4-nitro-3-(trifluoromethyl)phenyl]amino]cyclohexyl]oxy]ethan-1-one]
- inhibition at 5 µg/mL (Haemonchus contortus): ≥ 90%
- EC50 [1, 2]: < 1 µg/mL

Compound: N#Cc1ccc(N[C@H]2CC[C@H](OCC(=O)N3CCN(CC4Cc5cc(F)ccc5O4)CC3)CC2)cc1C(F)(F)F (some centres unmarked) [Compound 83]
- inhibition at 5 µg/mL (Haemonchus contortus): ≥ 90%
- EC50 [1, 2]: < 5 µg/mL

Compound: CN(c1ccc([N+](=O)[O-])c(C(F)(F)F)c1)[C@H]1CC[C@H](OCC(=O)N2CCN(Cc3cc4cc(Cl)ccc4o3)CC2)CC1 [Compound 275, 2-[(4-[methyl[4-nitro-3-(trifluoromethyl)phenyl]amino]cyclohexyl)-oxy]1-[4-(5-chlorobenzofuran-2-ylmethyl)piperazin-1-yl]ethan-1-one]
- inhibition at 5 µg/mL (Haemonchus contortus): ≥ 90%
- EC50 [1, 2]: < 1 µg/mL

Compound: CC(O[C@H]1CC[C@H](Nc2ccc([N+](=O)[O-])c(C(F)(F)F)c2)CC1)C(=O)N1CCN(c2ccc3cc(F)ccc3c2)CC1 (some centres unmarked) [Compound 252, 1-(4-(6-fluoronaphthalen-2-yl)piperazin-1-yl)-2-(−4-(4-nitro-3-(trifluoromethyl)phenylamino)cyclohexyloxy)propan-1-one]
- inhibition at 5 µg/mL (Haemonchus contortus): ≥ 90%
- EC50 [1, 2]: < 1 µg/mL

Compound: CC(CN1CCN(c2ccc3cc(Cl)ccc3n2)CC1)C(=O)N1CCC(Nc2ccc([N+](=O)[O-])c(C(F)(F)F)c2)CC1 (centres unmarked) [Compound 93, 3-[4-(6-chloroquinolin-2-yl)piperazin-1-yl]-2-methyl-1-(4-[[4-nitro-3-(trifluoromethyl)phenyl]amino]piperidin-1-yl)propan-1-one]
- inhibition at 5 µg/mL (Haemonchus contortus): ≥ 90%
- EC50 [1, 2]: < 5 µg/mL

Compound: O=[N+]([O-])c1ccc(N[C@H]2CC[C@H](OCC(=S)N3CCN(CC4Cc5cc(F)ccc5O4)CC3)CC2)cc1C(F)(F)F (some centres unmarked) [Compound 265, 1-[4-(5-fluoro-2,3-dihydro-benzofuran-2-ylmethyl)-piperazin-1-yl]-2-[4-(4-nitro-3-trifluoromethyl-phenylamino)-cyclohexyloxy]-ethanethione]
- inhibition at 5 µg/mL (Haemonchus contortus): ≥ 90%
- EC50 [1, 2]: < 1 µg/mL

Compound: O=C(CO[C@H]1CC[C@H](Nc2ccc([N+](=O)[O-])c(C(F)(F)F)c2)CC1)N1CCN(C(=O)c2cc3cc(F)ccc3o2)CC1 [Compound 182, 1-[4-[(5-fluoro-1-benzofuran-2-yl)carbonyl]piperazin-1-yl]-2-[(4-[[4-nitro-3-(trifluoromethyl)phenyl]amino]cyclohexyl)oxy]ethan-1-one]
- inhibition at 5 µg/mL (Haemonchus contortus): ≥ 90%
- EC50 [1, 2]: < 5 µg/mL

Compound: O=C(CO[C@H]1CC[C@H](Nc2ccc([N+](=O)[O-])c(C(F)(F)F)c2)CC1)N1CCN(C(=O)C2Cc3cc(Cl)ccc3O2)CC1 (some centres unmarked) [Compound 79, 1-[4-[(5-chloro-2,3-dihydro-1-benzofuran-2-yl)carbonyl]piperazin-1-yl]-2-[(4-[[4-nitro-3-(trifluoromethyl)phenyl]amino]cyclohexyl)oxy]ethan-1-one]
- inhibition at 5 µg/mL (Haemonchus contortus): ≥ 90%
- EC50 [1, 2]: < 5 µg/mL

Compound: CC(CN1CCN(c2ccc3cc(F)ccc3n2)CC1)C(=O)N1CCC(Nc2ccc([N+](=O)[O-])c(C(F)(F)F)c2)CC1 (centres unmarked) [Compound 100, 3-[4-(6-fluoroquinolin-2-yl)piperazin-1-yl]-2-methyl-1-(4-[[4-nitro-3-(trifluoromethyl)phenyl]amino]piperidin-1-yl)propan-1-one]
- inhibition at 5 µg/mL (Haemonchus contortus): ≥ 90%
- EC50 [1, 2]: < 5 µg/mL

Compound: CC(CN1CCN(c2ccc3cc(C(F)(F)F)ccc3n2)CC1)C(=O)N1CCC(Nc2ccc([N+](=O)[O-])c(C(F)(F)F)c2)CC1 (centres unmarked) [Compound 92, 2-methyl-1-(4-(4-nitro-3-(trifluoromethyl)phenylamino)piperidin-1-yl)-3-(4-(6-(trifluoromethyl)quinolin-2-yl)piperazin-1-yl)propan-1-one]
- inhibition at 5 µg/mL (Haemonchus contortus): ≥ 90%
- EC50 [1, 2]: < 1 µg/mL

Compound: O=C(CO[C@H]1CC[C@H](Nc2ccc([N+](=O)[O-])c(C(F)(F)F)c2)CC1)N1CC2CCC1CN2CC1Cc2cc(F)ccc2O1 (some centres unmarked) [Compound 309, 1-[5-(5-fluoro-2,3-dihydro-benzofuran-2-ylmethyl)-2,5-diaza-bicyclo[2.2.2]oct-2-yl]-2-[4-(4-nitro-3-trifluoromethyl-phenylamino)-cyclohexyloxy]-ethanone]
- inhibition at 5 µg/mL (Haemonchus contortus): ≥ 90%
- EC50 [1, 2]: < 0.1 µg/mL

Compound: O=C(NCCO[C@H]1CC[C@H](Nc2ccc([N+](=O)[O-])c(C(F)(F)F)c2)CC1)C(=O)NCc1cc2ccccc2o1 [Compound 220, N^1-(benzofuran-2-ylmethyl)-N^2-(2-(4-(4-nitro-3-(trifluoromethyl)phenylamino)cyclohexyloxy)ethyl)oxalamide]
- inhibition at 5 µg/mL (Haemonchus contortus): ≥ 90%
- EC50 [1, 2]: < 1 µg/mL

Compound: O=C(CO[C@H]1CC[C@H](Nc2ccc([N+](=O)[O-])c(C(F)(F)F)c2)CC1)N1CCN(Cc2oc3ccc(C(F)(F)F)cc3c2Cl)CC1 [Compound 253, 1-(4-[[3-chloro-5-(trifluoromethyl)-1-benzofuran-2-yl]methyl]piperazin-1-yl)-2-[[4-[[4-nitro-3-(trifluoromethyl)phenyl]amino]cyclohexyl]oxy]ethan-1-one]
- inhibition at 5 µg/mL (Haemonchus contortus): ≥ 90%
- EC50 [1, 2]: < 0.1 µg/mL

Compound: O=C(CO[C@H]1CC[C@H](Nc2ccc([N+](=O)[O-])c(C(F)(F)F)c2)CC1)N1CCc2cc(C(F)(F)F)ccc2C1 [Compound 194, 2-[(4-[[4-nitro-3-(trifluoromethyl)phenyl]amino]cyclohexyl)oxy]-1-[6-(trifluoromethyl)-1,2,3,4-tetrahydroisoquinolin-2-yl]ethan-1-one]
- inhibition at 5 µg/mL (Haemonchus contortus): ≥ 90%
- EC50 [1, 2]: < 1 µg/mL
